{
  "source": "EPA's ToxRefDB 2",
  "key": {"mouse [1]": {"test_system": "mouse", "settings": "Subchronic oral toxicity in rodents, b6c3f1, Feed, dose end: 90 day, group: systemic, systemic / in life observation / body weight / body weight + systemic / in life observation / body weight / body weight gain + systemic / in…"}, "dog": {"test_system": "dog", "settings": "Subchronic oral toxicity in nonrodent, beagle, Feed, dose end: 64 day, group: systemic, systemic / clinical chemistry / cytochrome p450, nos / cytochrome p450, nos + systemic / clinical chemistry / o-demethylase / o-demethylase…"}, "mouse [2]": {"test_system": "mouse", "settings": "Carcinogenicity, other, Oral, Feed, dose end: 24 month, group: systemic"}, "rat [3]": {"test_system": "rat", "settings": "Subchronic oral toxicity in rodents, wistar, Feed, dose end: 90 day, group: systemic, systemic / pathology microscopic / stomach / hyperplasia + systemic / pathology microscopic / stomach / infiltration cellular + systemic / …"}, "rabbit": {"test_system": "rabbit", "settings": "Prenatal developmental toxicity study, himalayan, Oral, Gavage/Intubation, dose end: 28 GD"}, "rat [4]": {"test_system": "rat", "settings": "Multigenerational reproductive toxicity study, wistar, Oral, Feed, dose end: 2 generation"}, "rat [5]": {"test_system": "rat", "settings": "Combined chronic toxicity/carcinogenicity, fischer, Oral, Feed, dose end: 24 month, group: systemic"}, "[6]": {"settings": "systemic / hematology / leukocyte (wbc) count differential / leukocyte (wbc) + systemic / hematology / mean corpuscular hemoglobin (mch) / …"}, "[7]": {"settings": "systemic / hematology / mean corpuscular hemoglobin concentration (mchc) / mean corpuscular hemoglobin concentration (mchc)"}, "[8]": {"settings": "group: developmental, developmental / developmental malformation / bone / absent + developmental / developmental malformation / bone / enlarged fontanel + …"}, "[9]": {"settings": "group: maternal, reproductive / reproductive performance / aborted / aborted + systemic / in life observation / body weight / body weight + systemic / in …"}, "[10]": {"settings": "group: parental, systemic / pathology microscopic / stomach / vacuolization"}, "[11]": {"settings": "group: reproductive, reproductive / offspring survival early / birth index / live birth index"}, "[12]": {"settings": "systemic / organ weight / kidney / relative to body weight"}},
  "data": [
    {"smiles": "CCCOc1nn(C(=O)[N-]S(=O)(=O)c2ccccc2C(=O)OC)c(=O)n1C.[Na+]", "note": "[Propoxycarbazone-sodium]", "values": [
      {"measurement": "LEL", "setting": "mouse [1]", "result": 860, "unit": "mg/kg/day"},
      {"measurement": "LOAEL", "setting": "mouse [1]", "result": 860, "unit": "mg/kg/day"},
      {"measurement": "NEL", "setting": "mouse [1]", "result": 205, "unit": "mg/kg/day"},
      {"measurement": "NOAEL", "setting": "mouse [1]", "result": 205, "unit": "mg/kg/day"},
      {"measurement": "LEL", "setting": "dog", "result": 1180, "unit": "mg/kg/day"},
      {"measurement": "LOAEL", "setting": "dog", "result": "> 1180", "unit": "mg/kg/day"},
      {"measurement": "NEL", "setting": "dog", "result": 286, "unit": "mg/kg/day"},
      {"measurement": "NOAEL", "setting": "dog", "result": "≥ 1180", "unit": "mg/kg/day"},
      {"measurement": "LOAEL", "setting": "mouse [2]; [6]", "result": "> 1880", "unit": "mg/kg/day"},
      {"measurement": "NOAEL", "setting": "mouse [2]; [6]", "result": "≥ 1880", "unit": "mg/kg/day"},
      {"measurement": "LEL", "setting": "mouse [2]; [7]", "result": 74.6, "unit": "mg/kg/day"},
      {"measurement": "NEL", "setting": "mouse [2]; [7]", "result": "< 74.6", "unit": "mg/kg/day"},
      {"measurement": "LEL", "setting": "rat [3]", "result": 1510, "unit": "mg/kg/day"},
      {"measurement": "LOAEL", "setting": "rat [3]", "result": 1510, "unit": "mg/kg/day"},
      {"measurement": "NEL", "setting": "rat [3]", "result": 286, "unit": "mg/kg/day"},
      {"measurement": "NOAEL", "setting": "rat [3]", "result": 286, "unit": "mg/kg/day"},
      {"measurement": "LEL", "setting": "rabbit; [8]", "result": 1000, "unit": "mg/kg/day"},
      {"measurement": "LOAEL", "setting": "rabbit; [8]", "result": "> 1000", "unit": "mg/kg/day"},
      {"measurement": "NEL", "setting": "rabbit; [8]", "result": 500, "unit": "mg/kg/day"},
      {"measurement": "NOAEL", "setting": "rabbit; [8]", "result": "≥ 1000", "unit": "mg/kg/day"},
      {"measurement": "LEL", "setting": "rabbit; [9]", "result": 500, "unit": "mg/kg/day"},
      {"measurement": "LOAEL", "setting": "rabbit; [9]", "result": 500, "unit": "mg/kg/day"},
      {"measurement": "NEL", "setting": "rabbit; [9]", "result": 100, "unit": "mg/kg/day"},
      {"measurement": "NOAEL", "setting": "rabbit; [9]", "result": 100, "unit": "mg/kg/day"},
      {"measurement": "LEL", "setting": "rat [4]; [10]", "result": 323, "unit": "mg/kg/day"},
      {"measurement": "LOAEL", "setting": "rat [4]; [10]", "result": 323, "unit": "mg/kg/day"},
      {"measurement": "NEL", "setting": "rat [4]; [10]", "result": 79.6, "unit": "mg/kg/day"},
      {"measurement": "NOAEL", "setting": "rat [4]; [10]", "result": 79.6, "unit": "mg/kg/day"},
      {"measurement": "LEL", "setting": "rat [4]; [11]", "result": 1310, "unit": "mg/kg/day"},
      {"measurement": "LOAEL", "setting": "rat [4]; [11]", "result": 1310, "unit": "mg/kg/day"},
      {"measurement": "NEL", "setting": "rat [4]; [11]", "result": 323, "unit": "mg/kg/day"},
      {"measurement": "NOAEL", "setting": "rat [4]; [11]", "result": 323, "unit": "mg/kg/day"},
      {"measurement": "LOAEL", "setting": "rat [5]; systemic / in life observation / body weight / body weight gain + systemic / urinalysis / ph / ph", "result": 459, "unit": "mg/kg/day"},
      {"measurement": "NOAEL", "setting": "rat [5]; systemic / in life observation / body weight / body weight gain + systemic / urinalysis / ph / ph + systemic / pathology gross / full gross …", "result": 43, "unit": "mg/kg/day"},
      {"measurement": "LEL", "setting": "rat [5]; [12]", "result": 43, "unit": "mg/kg/day"},
      {"measurement": "NEL", "setting": "rat [5]; [12]", "result": "< 43", "unit": "mg/kg/day"}
    ]}
  ]
}
